ChEMBL document CHEMBL5360626, “Bifunctionalized Betulinic Acid Conjugates with C-3-Monodesmoside and C-28-Triphenylphosphonium Moieties with Increased Cancer Cell Targetability” (J Nat Prod, 2023)
Calls of active or inactive are those of the source. The rule behind the calls is not given here.

Legend:
[1] = Drug accumulation in human PC-3 cells at 1 uM incubated for 2 hrs by LC-MS/MS analysis; type: ADME, cell-based; conditions: pc-3, 2 h
[2] = tested on: PC-3; experiment: Cytotoxicity against human PC-3 cells incubated for 72 hrs by MTT assay; type: functional, cell-based; conditions: PC-3, 72 h
[3] = tested on: PC-3; experiment: Downregulation of Akt expression in human PC-3 cells at IC50 incubated for 3 days by Western blot analysis; type: functional, cell-based; conditions: time 3.0 day
[4] = tested on: PC-3; experiment: Downregulation of ATG14 expression in human PC-3 cells at IC50 incubated for 3 days by Western blot analysis; type: functional, cell-based; conditions: time 3.0 day
[5] = Selectivity index, ratio of IC50 for human skin fibroblast to IC50 for human PC-3 cells; type: toxicity; conditions: human skin fibroblasts and PC-3 cells, read-out: Ratio IC50
[6] = Cytotoxicity against human skin fibroblast cells incubated for 72 hrs by MTT assay; type: toxicity, cell-based
[7] = tested on: PC-3; experiment: Upregulation of Cas3 expression in human PC-3 cells at IC50 incubated for 3 days by Western blot analysis; type: functional, cell-based; conditions: time 3.0 day
[8] = tested on: PC-3; experiment: Downregulation of LC-3 expression in human PC-3 cells at IC50 incubated for 3 days by Western blot analysis; type: functional, cell-based; conditions: time 3.0 day
[9] = tested on: MCF7; experiment: Cytotoxicity against human MCF7 cells incubated for 72 hrs by MTT assay; type: functional, cell-based; conditions: MCF7, 72 h
[10] = Selectivity index, ratio of IC50 for human skin fibroblast to IC50 for human Caco-2 cells
[11] = tested on: Caco-2; experiment: Cytotoxicity against human Caco-2 cells incubated for 72 hrs by MTT assay; type: functional, cell-based; conditions: Caco-2, 72 h
[12] = tested on: PC-3; experiment: Downregulation of Beclin-1 expression in human PC-3 cells at IC50 incubated for 3 days by Western blot analysis; type: functional, cell-based; conditions: time 3.0 day
[13] = tested on: PC-3; experiment: Induction of mitochondrial transmembrane potential dissipation in human PC-3 cells at 30 uM incubated for 1 hr by TMRE staining based flow cytometry; type: functional, cell-based
[14] = tested on: PC-3; experiment: […] of ROS production in human PC-3 cells at 30 uM incubated for 1 hr by MitoSOX staining based flow cytometry; type: functional, cell-based

Row | SMILES | Drug uptake [1] [µM] | Ratio IC50 [10] | IC50 [2] [nM] | Activity [3] | Activity [4] | selectivity ratio [5] | IC50 at 72 h [6] [nM] | Activity [7] | Activity [8] | IC50 [9] [nM] | IC50 [11] [nM] | Activity [12] | Activity [13] | Activity [14]
1 | C=C(C)[C@@H]1CC[C@]2(C(=O)OCCCCCC[P+](c3ccccc3)(c3ccccc3)c3ccccc3)CC[C@]3(C)[C@H](CC[C@@H]4[C@@]5(C)CC[C@H](O)C(C)(C)[C@@H]5CC[C@]43C)[C@@H]12.[Br-] | 3.5 | 4.7 | 800 |  |  | 8.3 | 8500 |  |  | 800 | 1400 |  |  | 
2 | C=C(C)[C@@H]1CC[C@]2(C(=O)O)CC[C@]3(C)[C@H](CC[C@@H]4[C@@]5(C)CC[C@H](O)C(C)(C)[C@@H]5CC[C@]43C)[C@@H]12 [BETULINIC ACID] | 0.035 |  |  |  |  |  |  |  |  |  |  |  |  | 

The next lines start with results.

Row | Drug uptake [1] [µM] | Ratio IC50 [10] | SMILES | IC50 [2] [nM] | Activity [3] | Activity [4] | selectivity ratio [5] | IC50 at 72 h [6] [nM] | Activity [7] | Activity [8] | IC50 [9] [nM] | IC50 [11] [nM] | Activity [12] | Activity [13] | Activity [14]
3 | 3.5 | 5.9 | C=C(C)[C@@H]1CC[C@]2(C(=O)OCCCCCC[P+](c3ccccc3)(c3ccccc3)c3ccccc3)CC[C@]3(C)[C@H](CC[C@@H]4[C@@]5(C)CC[C@H](O[C@@H]6O[C@@H](C)[C@H](O)[C@@H](O)[C@H]6O)C(C)(C)[C@@H]5CC[C@]43C)[C@@H]12.[Br-] | 1200 | Active | Active | 9.7 | 10800 | Active | Active | 1100 | 2000 | Active | Active | Active
4 | 3.5 | 2.4 | C=C(C)[C@@H]1CC[C@]2(C(=O)OCCCCCC[P+](c3ccccc3)(c3ccccc3)c3ccccc3)CC[C@]3(C)[C@H](CC[C@@H]4[C@@]5(C)CC[C@H](O[C@H]6O[C@H](CO)[C@@H](O)[C@H](O)[C@@H]6O)C(C)(C)[C@@H]5CC[C@]43C)[C@@H]12.[Br-] | 2300 |  |  | 2.5 | 2900 |  |  | 2000 | 2400 |  | Active | Active
5 | 172.9 | 10.2 | C=C(C)[C@@H]1CC[C@]2(C(=O)OCCCCCC[P+](c3ccccc3)(c3ccccc3)c3ccccc3)CC[C@]3(C)[C@H](CC[C@@H]4[C@@]5(C)CC[C@H](O[C@@H]6O[C@H](CO)[C@@H](O)[C@H](O)[C@H]6O)C(C)(C)[C@@H]5CC[C@]43C)[C@@H]12.[Br-] | 400 | Active | Active | 32 | 16500 | Active | Active | 700 | 1100 | Active | Active | Active
